Laboratory results as given in PubChem BioAssay AID1963836 (Molecular Pharmacology Branch, DTP, NCI, 2024).

System: 857933-349-R-J2-PDC complex spheroid viability
Assay: Anticancer human tumor 857933-349-R-J2-PDC patient-derived colon adenocarcinoma cell line growth inhibition [POLQ]
Conditions: for IC50: curve of first compound; for viability, T/C: stronger effect = lower value
Method: Multicellular complex tumor spheroid response to Polymerase (POL) inhibitors (novobiocin, ART-558, RP6685) in combination with a variety of drugs and investigational agents in selected tumor cell lines
The POL inhibitors (novobiocin, ART-558, and RP6685) were evaluated both individually and in combination with standard of care and investigational anticancer small molecules within a complex spheroid model of solid tumors. . Complex spheroids include a stromal component modeled by human endothelial cells (HUVEC) and fibroblasts modeled by human mesenchymal stem cells (MSCs). The concentration ranges selected for each drug and investigational agent were based upon clinically achievable concentrations if the clinical Cmax of the agent was known.
Compounds. The drugs and investigational agents: novobiocin (NSC847541), ART-558 (NSC835418), RP-6685 (NSC848927), peposertib (NSC802822), ceralasertib (NSC780249), elimusertib (NSC800525), camonsertib (NSC841442), AZD-1390 (NSC803789), olaparib (NSC753686), talazoparib (NSC767125), rucaparib (NSC756644), sotorasib (NSC818433), MRTX-1133 (NSC836407), SN-38 (NSC673596), topotecan (NSC609699), epotoside (NSC141540), doxorubicin (NSC123127), gemcitabine (NSC613327), 5-fluorouracil (NSC19893), paclitaxel (NSC125973), vemurafenib (NSC761431), MSA-2 (NSC828583), SN-011 (NSC837082), adavosertib (NSC754352), prexasertib (NSC758257), carboplatin (NSC241240) and oxaliplatin (NSC266046), were obtained from the National Cancer Institute (NCI) Developmental Therapeutics Program Chemical Repository (21). The FDA-approved anticancer drug set is available from the Developmental Therapeutics Program at https://dtp.cancer.gov/organization/dscb/obtaining/. […] The stock solutions were prepared in dimethyl sulfoxide (DMSO, Sigma-Aldrich, St. Louis, MO, cat. D2650), except for the platinum compounds which were prepared in saline (Quality Biological, Gaithersburg, MD, cat. 114-055-101), at 800-fold the tested concentration and stored at -70 degrees C prior to their use. All drugs and investigational agents were tested over a range starting from a high concentration at or near the clinical Cmax and decreasing in half-log increments. If the clinical Cmax for an agent had not been determined, the highest concentration tested was 10 microM, except for SN-38, which was tested at a high concentration of 1 microM.
Cell Culture. All cells were maintained in an incubator at 37 degrees C and 5% CO2 with 95% humidity. The PDC lines were cultured according to standard operating procedures established by the NCI PDMR (https://pdmr.cancer.gov). Table 3 of the manuscript, lists the cell lines along with the number of the three cell types plated to form the mct-spheroids and media for tumor cell growth. After thawing, all PDC lines, except 997537-175-T-J1-PDC and 415267-285-R-J2-PDC, were cultured in Matrigel-coated flasks prepared with a working solution of 1X Ham's F-12 nutrient mix, without supplementation (Thermo Fisher Scientific, cat. 11765054), 100 U/mL penicillin-streptomycin (Thermo Fisher Scientific, cat. 15140122), and 2.5% Matrigel (Corning Inc., Corning, NY, cat. 354248) for the first three passages. The two PDC lines 997537-175-T-J1-PDC and 415267-285-R-J2-PDC were cultured on uncoated flasks. The 857933-349-R-J2-PDC line was cultured in 6C/Colon 1B media containing advanced DMEM/F-12 (Thermo Fisher Scientific, cat. 12634028), 10 mM HEPES (Thermo Fisher Scientific, cat. 15630080), 1X GlutaMAX supplement (Thermo Fisher Scientific, cat. 35050061), 0.1 mg/mL primocin (InvivoGen, San Diego, CA, cat. ant-pm-2), 10% defined fetal bovine serum, heat inactivated (HyClone Laboratories Inc., Logan, UT, cat. SH30070.03HI), 50% L-WRN conditioned media (ATCC, cat. CRL-3276), 1.25 mM N-Acetyl-L-cysteine (Sigma-Aldrich, cat. A9165), 10 mM nicotinamide (Sigma-Aldrich, cat. N0636), 1X B-27 supplement (Thermo Fisher Scientific, cat. 17504044), 1X N-2 supplement (Thermo Fisher Scientific, cat. […]

[1] = second compound 0.0316 µM, first compound 0.0316 µM
[2] = second compound 0.0316 µM, first compound 0.1 µM
[3] = second compound 0.0316 µM, first compound 0.316 µM
[4] = second compound 0.0316 µM, first compound 1 µM
[5] = second compound 0.0316 µM, first compound 3.16 µM
[6] = second compound 0.0316 µM, first compound 10 µM
[7] = second compound 0.1 µM, first compound 0.0316 µM
[8] = second compound 0.1 µM, first compound 0.1 µM
[9] = second compound 0.1 µM, first compound 0.316 µM
[10] = second compound 0.1 µM, first compound 1 µM
[11] = second compound 0.1 µM, first compound 3.16 µM
[12] = second compound 0.1 µM, first compound 10 µM
[13] = second compound 0.316 µM, first compound 0.0316 µM
[14] = second compound 0.316 µM, first compound 0.1 µM
[15] = second compound 0.316 µM, first compound 0.316 µM
[16] = second compound 0.316 µM, first compound 1 µM
[17] = second compound 0.316 µM, first compound 3.16 µM
[18] = second compound 0.316 µM, first compound 10 µM
[19] = second compound 1 µM, first compound 0.0316 µM
[20] = second compound 1 µM, first compound 0.1 µM
[21] = second compound 1 µM, first compound 0.316 µM
[22] = second compound 1 µM, first compound 1 µM
[23] = second compound 1 µM, first compound 3.16 µM
[24] = second compound 1 µM, first compound 10 µM
[25] = second compound 3.16 µM, first compound 0.0316 µM
[26] = second compound 3.16 µM, first compound 0.1 µM
[27] = second compound 3.16 µM, first compound 0.316 µM
[28] = second compound 3.16 µM, first compound 1 µM
[29] = second compound 3.16 µM, first compound 3.16 µM
[30] = second compound 3.16 µM, first compound 10 µM
[31] = second compound 10 µM, first compound 0.0316 µM
[32] = second compound 10 µM, first compound 0.1 µM
[33] = second compound 10 µM, first compound 0.316 µM
[34] = second compound 10 µM, first compound 1 µM
[35] = second compound 10 µM, first compound 3.16 µM
[36] = second compound 10 µM, first compound 10 µM
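Also: spheroids exposed to compounds for seven days before readout.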

COc1cccc2c1C(=O)c1c(O)c3c(c(O)c1C2=O)CC(O)(C(=O)CO)CC3OC1CC(N)C(O)C(C)O1 (centres undefined) + Cc1cccc(N(C)C(=O)C2C(O)CCN2c2nc(C)cc(C(F)(F)F)c2C#N)c1 gave an IC50 (second compound 0.0316 µM) of 0.218 µM, an IC50 (second compound 0.1 µM) of 0.315 µM and an IC50 (second compound 0.316 µM) of 0.304 µM. It also gave an IC50 (second compound 1 µM) of 0.196 µM, an IC50 (second compound 3.16 µM) of 0.199 µM and an IC50 (second compound 10 µM) of 0.176 µM. For the same molecule, the viability, T/C [1] was 86.9%, the viability, T/C [2] was 62.2% and the viability, T/C [3] was 47.1%. For the same molecule, the viability, T/C [4] was 17%, the viability, T/C [5] was 0.52% and the viability, T/C [6] was 0.28%. For the same molecule, the viability, T/C [7] was 76.9%, the viability, T/C [8] was 79.5% and the viability, T/C [9] was 48.4%. The viability, T/C [10] was 12.9%, the viability, T/C [11] was 0.41% and the viability, T/C [12] was 0.35%. It also gave a viability, T/C [13] of 70.4%, a viability, T/C [14] of 79.1% and a viability, T/C [15] of 46.7%. It also gave a viability, T/C [16] of 14%, a viability, T/C [17] of 0.45% and a viability, T/C [18] of 0.46%. The viability, T/C [19] was 74.1%, the viability, T/C [20] was 60.1% and the viability, T/C [21] was 42.3%. For the same molecule, the viability, T/C [22] was 6.42%, the viability, T/C [23] was 0.28% and the viability, T/C [24] was 0.34%. It also gave a viability, T/C [25] of 86.2%, a viability, T/C [26] of 66.4% and a viability, T/C [27] of 40.2%. The viability, T/C [28] was 7.89%, the viability, T/C [29] was 0.38% and the viability, T/C [30] was 0.47%. It also gave a viability, T/C [31] of 65.9%, a viability, T/C [32] of 64.1% and a viability, T/C [33] of 35.7%. For the same molecule, the viability, T/C [34] was 4.82%, the viability, T/C [35] was 0.36% and the viability, T/C [36] was 0.46%.

For Nc1ccn(C2OC(CO)C(O)C2(F)F)c(=O)n1 (centres undefined) + Cc1cccc(N(C)C(=O)C2C(O)CCN2c2nc(C)cc(C(F)(F)F)c2C#N)c1, the IC50 (second compound 0.0316 µM) was 0.169 µM, the IC50 (second compound 0.1 µM) was 0.175 µM and the IC50 (second compound 0.316 µM) was 0.117 µM. For the same molecule, the IC50 (second compound 1 µM) was 0.141 µM, the IC50 (second compound 3.16 µM) was 0.146 µM and the IC50 (second compound 10 µM) was 0.126 µM. It also gave a viability, T/C [1] of 81.5%, a viability, T/C [2] of 62.4% and a viability, T/C [3] of 35.5%. The viability, T/C [4] was 15.5%, the viability, T/C [5] was 13.2% and the viability, T/C [6] was 11.9%. For the same molecule, the viability, T/C [7] was 82.9%, the viability, T/C [8] was 68.2% and the viability, T/C [9] was 30.5%. It also gave a viability, T/C [10] of 15.2%, a viability, T/C [11] of 12.4% and a viability, T/C [12] of 7.96%. The viability, T/C [13] was 73.8%, the viability, T/C [14] was 54% and the viability, T/C [15] was 26.5%. The viability, T/C [16] was 15.5%, the viability, T/C [17] was 13.2% and the viability, T/C [18] was 10.8%. It also gave a viability, T/C [19] of 78.3%, a viability, T/C [20] of 61.4% and a viability, T/C [21] of 23.1%. The viability, T/C [22] was 18.2%, the viability, T/C [23] was 12.1% and the viability, T/C [24] was 10%. For the same molecule, the viability, T/C [25] was 65.2%, the viability, T/C [26] was 60% and the viability, T/C [27] was 30.7%. For the same molecule, the viability, T/C [28] was 15.7%, the viability, T/C [29] was 10.1% and the viability, T/C [30] was 10.3%. The viability, T/C [31] was 80.6%, the viability, T/C [32] was 53.7% and the viability, T/C [33] was 33.6%. It also gave a viability, T/C [34] of 17.4%, a viability, T/C [35] of 12.2% and a viability, T/C [36] of 11.4%.
